Results published in US20190247302A1, “MATERIALS AND METHODS FOR TREATING OPHTHALMIC INFLAMMATION” (University of Miami, priority 2016, published 2019).
“Also recorded” adds a separate entry of the source.

Key:
[1] = system: TNFα production in RAW cells; assay: TNFα protein in LPS-treated RAW cells, intracellular antibody staining and flow cytometry; format: cell-based; conditions: 1 μg/ml LPS, BRDi 67.5-500 nM
Experimental: Y axis=TNFα percentage of P1 gate; X axis=no LPS/no BRDi, 1 μg/ml LPS/no BRDi, BRDI 500 nM LPS, BRDI 250 nM LPS, BRDI 125 nM LPS, BRDI 67.5 Nm LPS. Triangles=JQ1; squares=IBET151; circles=EP313.
Studies then examined protein production and confirmed that TNFα was reduced by treating RAW cells in vitro with multiple bromodomain inhibitor compounds (FIG. 2).

[2] = Concentration of bromodomain inhibitor achievable in the new ophthalmic formulation; format: physicochemical; conditions: 0.5% DMSO, 0.5% Tween-80, 0.9% NaCl, 1.8% Captisol, versus previous formulations
Source text: Next, to address whether local administration of bromodomain inhibitors could be used to regulate ocular inflammatory responses, an ophthalmic formulation BRDi compounds was developed. De novo development was required because the solution required to dissolve these non-polar compounds was not amenable to application to the ocular surface, as they require dilution in high concentrations of DMSO and Tween 80.
To address this issue, a new ophthalmic formulation was developed. The bromodomain inhibitors were successfully diluted at higher concentrations when formulated with DMSO, polysorbate (Tween-80), preservative free 0.9% NaCl, and captisol (Captisol®), which is a polyanionic beta-cyclodextrin derivative providing. […] Using this new formulation, the concentrations of both DMSO and Tween-80 were able to be reduced, from 5% to 0.5% of each (which is tolerable to the eye). The final solution containing the bromodomain inhibitors was 0.5% DMSO, 0.5% Tween-80 and 1.8% Captisol.

[3] = system: LPS-induced keratitis; assay: LPS-induced keratitis, local BRDi administration; clinical haze score; format: in vivo
Source text: FIG. 5 is a bar graph illustrating the effect of prior formulations on corneal clarity and corneal edema following LPS-induced keratitis. Y axis=clinical haze score; X axis=time after application of LPS+formulations (IBET151, topical (solid bar); IBET151, subconjunctival (hashed bar); solvent, subconjunctival (dotted bar)). […] FIG. 6 is a bar graph illustrating the effect of a formulation of the instant disclosure (administered via subconjunctival injection) on corneal clarity and corneal edema following LPS-induced keratitis. Y axis=clinical haze score; X axis=time after application of LPS+IBET151 formulation (solid bar); solvent alone (hashed bar); saline (dotted bar)). […] FIG. 7 is a bar graph illustrating the effect of a formulation of the instant disclosure (topical administration) on corneal clarity and corneal edema following LPS-induced keratitis. Y axis=clinical haze score; X axis=time after application of LPS+JQ1 formulation (topical, hashed bar); solvent alone (subconjunctival, dotted bar)). […] Next, to address whether local administration of bromodomain inhibitors could be used to regulate ocular inflammatory responses, an ophthalmic formulation BRDi compounds was developed. De novo development was required because the solution required to dissolve these non-polar compounds was not amenable to application to the ocular surface, as they require dilution in high concentrations of DMSO and Tween 80. […] The new formulation comprising bromodomain inhibitor IBET-151 was delivered locally in the eye by subconjunctival injection (20 μg/kg/body weight) just prior and during the induction of in vivo LPS-induced keratitis. […] To confirm that a second bromodomain inhibitor could successfully be used in the ocular compartment to reduce inflammation, JQ1 dissolved in the new ophthalmologic formulation was locally administered (1 μg/μl). The formulation was applied topically, i.e. on the corneal surface 1 drop/3× per day.

[4] = system: corneal keratocytes; assay: Cytokine mRNA in LPS-exposed human corneal keratocytes; format: cell-based; conditions: 4 hours LPS, 500 nM
Experimental: (§1) FIGS. 8A-8C are a bar graph illustrating the effect of BRDi on a human ocular surface primary parenchymal cell line. FIG. 8A illustrates cytokine/GAPDH mRNA levels (ratio to no treatment) (Y-axis) of IL-8, IL-1β, IL-6, TNFα, and CCL2 in HCEC administered no treatment (solid bars), three hours after exposure to LPS (gray bar), and three hours after exposure to LPS and JQ1 (500 nM, hashed bar). FIG. 8B illustrates cytokine/GAPDH mRNA levels (ratio to no treatment) (Y-axis) of IL-8, IL-1β, and IL-6 in keratocytes administered no treatment (solid bars), four hours after exposure to LPS (gray bar), four hours after exposure to LPS and JQ1 (500 nM, hashed bar), and four hours after exposure to LPS and EP313 (500 nM, checked bar). FIG. 8C illustrates cytokine/GAPDH mRNA levels (ratio to no treatment) (Y-axis) of CCL2 in keratocytes administered no treatment (solid bars), four hours after exposure to LPS (gray bar), four hours after exposure to LPS and JQ1 (500 nM, hashed bar), and four hours after exposure to LPS and EP313 (500 nM, checked bar).
The ability of BRDi compounds to regulate production of dry eye-associated cytokines and chemokines produced by human ocular parenchymal cell populations also was examined. In vitro cells from the cornea and conjunctiva compartments of donated human eyes (Florida Lions Bank) were expanded. […]

[5] = system: conjunctival epithelial cells (HCEC); assay: Cytokine mRNA in LPS-exposed human conjunctival epithelial cells (HCEC); format: cell-based; conditions: 3 hours LPS, 500 nM
Experimental: as §1
The ability of BRDi compounds to regulate production of dry eye-associated cytokines and chemokines produced by human ocular parenchymal cell populations also was examined. In vitro cells from the cornea and conjunctiva compartments of donated human eyes (Florida Lions Bank) were expanded. Primary cell lines were developed comprising either corneal keratocytes or conjunctival epithelial cells (HCEC) (FIG. 8A-8C). Following 3 hr. exposure to LPS, HCEC produced significant levels of IL-8, […], TNFα, CCL2, and detectable levels of IL-6 RNA (FIG. 8A). […] Corneal keratocyte cultures were also examined for RNA production and were also regulated by BRDi compounds JQ1 and EP313 (FIGS. 8B and 8C). […] These observations extend the potential of BRDi to inhibit ocular inflammation. Additionally, differences may exist between the families of BRDi compounds such that particular BRDi may be more useful under a specific set of disease conditions.

| SMILES | TNFα protein (TNFα percentage of P1 gate) [1] | concentration of bromodomain inhibitor that can be formulated [2] | clinical haze score (corneal clarity and corneal edema) ([3]; new formulation RLVP.001, topical, 1 μg/μl, 1 drop/3× per day) | cytokine RNA production [4] | CCL2 RNA level [5] | IL-1β RNA level [5] | IL-6 RNA level [5] | IL-8 RNA level [5] | TNFα RNA level [5] | clinical haze score (corneal clarity and corneal edema) ([3]; new formulation RLVP.001, subconjunctival injection, 20 μg/kg/body weight) | clinical haze score (corneal clarity and corneal edema) ([3]; new formulation RLVP.001, subconjunctival injection, 20 μg/kg/body weight, listed as IBET-151) |
| --- | --- | --- | --- | --- | --- | --- | --- | --- | --- | --- | --- |
| Cc1sc2c(c1C)C(c1ccc(Cl)cc1)=N[C@@H](CC(=O)OC(C)(C)C)c1nnc(C)n1-2 [JQ1] | TNFα protein inhibition | significantly higher concentrations | prevents corneal opacification; also recorded: successfully ameliorated the inflammatory response in the cornea | regulated | marked decreases | marginally reduced | marked decreases | marked decreases | marked decreases |  |  |
| COc1cc2c(cc1-c1c(C)noc1C)ncc1[nH]c(=O)n([C@H](C)c3ccccn3)c12 [IBET151] | TNFα protein inhibition | significantly higher concentrations |  |  |  |  |  |  |  | prevents corneal opacification | ameliorates the development of corneal inflammation |
